In publication PMC10813153, “Development of a Novel Covalently Bonded Conjugate of Caprylic Acid Tripeptide (Isoleucine–Leucine–Aspartic Acid) for Wound-Compatible and Injectable Hydrogel to Accelerate Healing” (Biomolecules, 2024):
“Also recorded” adds a separate entry of the source. Where a SMILES comes first, the peptide text is derived from it. The star is where a group is joined. Palmitoyl = CCCCCCCCCCCCCCCC(=O)*; Myristoyl = CCCCCCCCCCCCCC(=O)*; Lauroyl = CCCCCCCCCCCC(=O)*; Octanoyl = CCCCCCCC(=O)*

Columns and labels:
[1] = Hydrogel formation, confirmed by vial inversion method; type: physicochemical; conditions: for Gelation Feature: conjugate 1.5% w/v in PBS saline, pH 6.5–7.8, dissolved at pH 9 then readjusted, sonication, vial inversion; for Hydrogel stability when shaken by hand: visual, compared with other conjugates; for Gelation Time: time after the pH was adjusted to 7.4; for Concentration at which hydrogel forms in PBS: PBS buffer, remained a solution below, vial inversion test
Experimental: Lyophilized fatty acid–peptide conjugates were dissolved in phosphate-buffered saline (PBS) at a final concentration of 0.5% (5.0 mg in 1 mL of PBS), 1.5% (15.0 mg in 1 mL of PBS), and 3% (30.0 mg in 1 mL of PBS). The pH of the peptide solutions was increased to 9.0 by adding 0.1 M NaOH to dissolve the compounds and readjusted to pH 2–8 by the drop-wise addition of 0.1 N HCl, followed by sonication. […] The gel formation was confirmed by the vial inversion method, and photographs were taken.

[2] = Gross assessment of toxicity during wound healing test; parameters: species or system C57BL/6J mice; conditions: mouse, in vivo
Excerpt: The animal use protocol was authorized and approved by the Institutional Animal Care and Use Committee of Louisiana State University Health Sciences Center, New Orleans, and followed the ARRIVE guidelines. Briefly, full-thickness burn wounds (6 mm diameter) were generated in the dorsal skin on both sides along the midline of C57BL/6J mice (female, 18 months old, Jackson Laboratory, Bar Harbor, ME, USA) at 0 days post burn (dpb), similar to the procedures performed by us and others previously. Each treatment group included four mice. […] We monitored mouse health and behavior, including drinking, foraging, grooming, and eating, and we examined all wounds twice per day to ensure that the hydrogel and dressing stayed in place. Wound healing was assessed as described previously. The wounds were photographed, and their areas were calculated using NIH ImageJ software version 1.54d. […] The livers, kidneys, and spleens were also collected, weighed, and measured for size to obtain a gross assessment of toxicity. […] The epithelial gap—i.e., the distance between the neoepithelium emerging from the edges of the wound area—was measured using OLYMPUS OlyVIA software version 3.4.1 (Build 26606), as described previously but with some modifications.

[3] = Hydrogel formation, confirmed by vial inversion method; type: physicochemical; conditions: 1.5% w/v in PBS

SMILES	Gelation Feature [1]	Gelation Time ([1]; 1.5% w/v in PBS) [min]	also measured
CC[C@H](C)[C@H](N)C(=O)N[C@@H](CC(C)C)C(=O)N[C@@H](CC(=O)O)C(N)=O [Compound 1] (H-Ile-Leu-Asp-NH2)	did not gelate	–	–
CCCCCCCC(=O)N[C@H](C(=O)N[C@@H](CC(C)C)C(=O)N[C@@H](CC(=O)O)C(N)=O)[C@@H](C)CC [Compound 2, caprylic acid–isoleucine–leucine–aspartic acid amide conjugate] (Octanoyl-Ile-Leu-Asp-NH2)	–	–	Systematic or local toxicity during the wound healing test [2]: did not show systematic or local toxicity; Gel stability at pH 10 [3]: no gelation; Gel stability at pH 2–8 ([1]; 1.5% w/v in PBS, pH 2–8): gelated and stable; also recorded: formed a hydrogel and stayed gelated; Hydrogel stability when shaken by hand [1]: more stable than either (3) or (4)
CCCCCCCCCCCC(=O)N[C@H](C(=O)N[C@@H](CC(C)C)C(=O)N[C@@H](CC(=O)O)C(N)=O)[C@@H](C)CC [Compound 3] (Lauroyl-Ile-Leu-Asp-NH2)	–	6	Concentration at which hydrogel forms in PBS [1]: ≥ 0.25 % (w/v)
CCCCCCCCCCCCCCCC(=O)N[C@H](C(=O)N[C@@H](CC(C)C)C(=O)N[C@@H](CC(=O)O)C(N)=O)[C@@H](C)CC [Compound 4] (Palmitoyl-Ile-Leu-Asp-NH2)	–	10	Concentration at which hydrogel forms in PBS [1]: ≥ 0.25 % (w/v)
CCCCCCCC(=O)N[C@H](C(=O)N[C@@H](CC(C)C)C(=O)N[C@@H](CC(=O)O)C(=O)O)[C@@H](C)CC [Compound 5] (Octanoyl-Ile-Leu-Asp-OH)	unable to form a hydrogel at all; also recorded: Not gelate	–	–
CCCCCCCCCCCC(=O)N[C@H](C(=O)N[C@@H](CC(C)C)C(=O)N[C@@H](CC(=O)O)C(=O)O)[C@@H](C)CC [Compound 6] (Lauroyl-Ile-Leu-Asp-OH)	Hydrogels were formed	7	Hydrogel stability when shaken by hand [1]: weaker than those formed by Cn acid-ILD-NH2 with the same Cn acid
CCCCCCCCCCCCCC(=O)N[C@H](C(=O)N[C@@H](CC(C)C)C(=O)N[C@@H](CC(=O)O)C(=O)O)[C@@H](C)CC [Compound 7] (Myristoyl-Ile-Leu-Asp-OH)	Hydrogels were formed	10	Hydrogel stability when shaken by hand [1]: weaker than those formed by Cn acid-ILD-NH2 with the same Cn acid
CCCCCCCCCCCCCCCC(=O)N[C@H](C(=O)N[C@@H](CC(C)C)C(=O)N[C@@H](CC(=O)O)C(=O)O)[C@@H](C)CC [Compound 8] (Palmitoyl-Ile-Leu-Asp-OH)	Hydrogels were formed	15	Hydrogel stability when shaken by hand [1]: weaker than those formed by Cn acid-ILD-NH2 with the same Cn acid
CCCCCCCC(=O)N[C@H](C(=O)N[C@@H](C)C(=O)N[C@@H](CC(=O)O)C(N)=O)[C@@H](C)CC [Compound 9] (Octanoyl-Ile-Ala-Asp-NH2)	–	2	–
CCCCCCCC(=O)N[C@H](C(=O)N[C@H](C(=O)N[C@@H](CC(=O)O)C(N)=O)C(C)C)[C@@H](C)CC [Compound 10] (Octanoyl-Ile-Val-Asp-NH2)	–	3	–
CCCCCCCC(=O)N[C@@H](C)C(=O)N[C@@H](CC(C)C)C(=O)N[C@@H](CC(=O)O)C(N)=O [Compound 11] (Octanoyl-Ala-Leu-Asp-NH2)	–	3	–
CCCCCCCC(=O)N[C@@H](CC(C)C)C(=O)N[C@@H](CC(C)C)C(=O)N[C@@H](CC(=O)O)C(N)=O [Compound 12] (Octanoyl-Leu-Leu-Asp-NH2)	–	5	–
CCCCCCCC(=O)N[C@H](C(=O)N[C@@H](CC(C)C)C(=O)N[C@@H](CC(=O)O)C(N)=O)C(C)C [Compound 13] (Octanoyl-Val-Leu-Asp-NH2)	–	6	–
CCCCCCCC(=O)N[C@H](C(=O)N[C@H](C(=O)N[C@@H](CC(=O)O)C(N)=O)[C@@H](C)CC)[C@@H](C)CC [Compound 14] (Octanoyl-Ile-Ile-Asp-NH2)	–	5	–
CCCCCCCC(=O)N[C@@H](CC(C)C)C(=O)N[C@H](C(=O)N[C@@H](CC(=O)O)C(N)=O)[C@@H](C)CC [Compound 15] (Octanoyl-Leu-Ile-Asp-NH2)	–	5	–
